Measured values taken from patent US20260347364A1, “PYRAZOLO[4,3-F]QUINAZOLINE DERIVATIVES AS MODULATORS OF G12D MUTANT KRAS USEFUL FOR THE TREATMENT OF CANCER” (JAZZ PHARMACEUTICALS IRELAND LTD., priority 2023, published 2026).

What was measured:
KRAS G12D = molecular target: T1, KRAS G12D (Homo sapiens, UniProt P01116, G12D); assay: HTRF nucleotide exchange assay, KRAS G12D; assay type: biochemical; settings: HTRF nucleotide exchange assay (NEA), class symbols
T1 construct: aa1-188 KRAS WT, HRAS WT, NRAS WT, or KRAS containing the G12D
T1 sequence (P01116 1-188 isoform P01116-2 G12D): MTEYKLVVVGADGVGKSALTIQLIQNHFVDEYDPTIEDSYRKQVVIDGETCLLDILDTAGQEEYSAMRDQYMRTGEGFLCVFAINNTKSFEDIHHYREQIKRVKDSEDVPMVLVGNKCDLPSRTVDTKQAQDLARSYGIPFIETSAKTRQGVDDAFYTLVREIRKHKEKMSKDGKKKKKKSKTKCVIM

KRAS WT = molecular target: T2, KRAS WT (Homo sapiens, UniProt P01116); assay: HTRF nucleotide exchange assay, KRAS WT; assay type: biochemical; settings: class symbols; for IC50: HTRF nucleotide exchange assay (NEA)
T2 construct: aa1-188 KRAS WT
T2 sequence (P01116 1-188 isoform P01116-2): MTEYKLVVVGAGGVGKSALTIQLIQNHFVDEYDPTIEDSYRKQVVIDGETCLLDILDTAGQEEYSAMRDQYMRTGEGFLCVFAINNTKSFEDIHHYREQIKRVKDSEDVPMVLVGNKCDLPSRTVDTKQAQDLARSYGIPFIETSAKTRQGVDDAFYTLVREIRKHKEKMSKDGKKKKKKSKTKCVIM

Compound	IC50 (KRAS G12D) [nM]	IC50 (KRAS WT) [nM]	KRAS^WT NEA (KRAS WT)
CCc1c(F)ccc2cc(O)cc(-c3c(F)c4nc(OC[C@@]56CCCN5C[C@H](F)C6)nc(N5CCOCC(C)(O)C5)c4c4cn(C)nc34)c12 (stereo partly drawn) [Example 92, 4-[4-(8-ethyl-7-fluoro-3-hydroxy-1-naphthyl)-5-fluoro-2-methyl-7-[[(2R,8S)-2-fluoro-1,2,3,5,6,7-hexahydropyrrolizin-8-yl]methoxy]pyrazolo[4,3-f]quinazolin-9-yl]-6-methyl-1,4-oxazepan-6-ol]	≤ 10	≤ 10	
C#CC1(O)CCCN(c2nc(OC[C@@]34CCCN3C[C@H](F)C4)nc3cc(-c4cc(O)cc5ccc(F)c(CC)c45)c4nn(C)cc4c23)C1 (stereo partly drawn) [Example 129, 1-[4-(8-ethyl-7-fluoro-3-hydroxy-1-naphthyl)-2-methyl-7-[[(2R,8S)-2-fluoro-1,2,3,5,6,7-hexahydropyrrolizin-8-yl]methoxy]pyrazolo[4,3-f]quinazolin-9-yl]-3-ethynyl-piperidin-3-ol]	10 to 100	10 to 100	
CCc1c(F)ccc2cc(O)cc(-c3c(F)c4nc(OCCC5CN(C)CCO5)nc(N5CCOCC(C)(O)C5)c4c4cn(C)nc34)c12 (stereo not shown) [Example 224, 4-[4-(8-ethyl-7-fluoro-3-hydroxy-1-naphthyl)-5-fluoro-2-methyl-7-[2-(4-methylmorpholin-2-yl)ethoxy]pyrazolo[4,3-f]quinazolin-9-yl]-6-methyl-1,4-oxazepan-6-ol]	≤ 10	10 to 100	
Cn1cc2c(n1)c(-c1cccc3sc(N)c(C#N)c13)cc1nc(OC[C@@]34CCCN3C[C@H](F)C4)nc(N3CC4CCC(C3)N4)c12 [Example 86, 2-amino-4-[9-(3,8-diazabicyclo[3.2.1]octan-3-yl)-7-[[(2R,8S)-2-fluoro-1,2,3,5,6,7-hexahydropyrrolizin-8-yl]methoxy]-2-methyl-pyrazolo[4,3-f]quinazolin-4-yl]benzothiophene-3-carbonitrile]	≤ 10		D (<49% inhibition at 10 μM)
CCc1c(F)ccc2cc(O)cc(-c3c(C)c4nc(OC[C@]5(C)CCCN5C)nc(N5CCOCC(C)(O)C5)c4c4cn(C)nc34)c12 (stereo partly drawn) [Example 148, 4-[4-(8-ethyl-7-fluoro-3-hydroxy-1-naphthyl)-2,5-dimethyl-7-[[(2S)-1,2-dimethylpyrrolidin-2-yl]methoxy]pyrazolo[4,3-f]quinazolin-9-yl]-6-methyl-1,4-oxazepan-6-ol]	≤ 10	≤ 10	
CCc1c(F)ccc2cc(O)cc(-c3c(C)c4nc(OCC5(CN6CCCC6)CC5)nc(N5CCOCC(C)(O)C5)c4c4cn(C)nc34)c12 (stereo not shown) [Example 146, 4-[4-(8-ethyl-7-fluoro-3-hydroxy-1-naphthyl)-2,5-dimethyl-7-[[1-(pyrrolidin-1-ylmethyl)cyclopropyl]methoxy]pyrazolo[4,3-f]quinazolin-9-yl]-6-methyl-1,4-oxazepan-6-ol]	≤ 10	≤ 10	
CCc1c(F)ccc2cc(O)cc(-c3c(F)c4nc(OC[C@@]56CCCN5C[C@H](F)C6)nc(N5CCCn6nc(C(=O)N7CCOCC7)cc6C5)c4c4cn(C)nc34)c12 [Example 195, [5-[4-(8-ethyl-7-fluoro-3-hydroxy-1-naphthyl)-5-fluoro-7-[[(2R,8S)-2-fluoro-1,2,3,5,6,7-hexahydropyrrolizin-8-yl]methoxy]-2-methyl-pyrazolo[4,3-f]quinazolin-9-yl]-4,6,7,8-tetrahydropyrazolo[1,5-a][1,4]diazepin-2-yl]-morpholino-methanone]	≤ 10	≤ 10	
CCc1c(F)ccc2cc(O)cc(-c3c(F)c4nc(OC[C@@]56CCCN5C[C@H](F)C6)nc(N5CCOC[C@](C)(O)C5)c4c4cn(C)nc34)c12 [Example 110, (6R)-4-[4-(8-ethyl-7-fluoro-3-hydroxy-1-naphthyl)-5-fluoro-2-methyl-7-[[(2R,8S)-2-fluoro-1,2,3,5,6,7-hexahydropyrrolizin-8-yl]methoxy]pyrazolo[4,3-f]quinazolin-9-yl]-6-methyl-1,4-oxazpan-6-ol]	≤ 10	≤ 10	
CCc1c(F)ccc2cc(O)cc(-c3c(F)c4nc(OCC5(CN6CCC(O)CC6)CC5)nc(N5CCOCC(C)(O)C5)c4c4cn(C)nc34)c12 (stereo not shown) [Example 213, 4-[4-(8-ethyl-7-fluoro-3-hydroxy-1-naphthyl)-5-fluoro-7-[[1-[(4-hydroxy-1-piperidyl)methyl]cyclopropyl]methoxy]-2-methyl-pyrazolo[4,3-f]quinazolin-9-yl]-6-methyl-1,4-oxazepan-6-ol]	≤ 10	≤ 10	
CCc1c(F)ccc2cc(O)cc(-c3cc4nc(OCC56CCCN5CCC6)nc(N5CCCC(C)(O)C5)c4c4cn(C)nc34)c12 (stereo not shown) [Example 28, 1-[4-(8-ethyl-7-fluoro-3-hydroxy-1-naphthyl)-7-(1,2,3,5,6,7-hexahydropyrrolizin-8-ylmethoxy)-2-methyl-pyrazolo[4,3-f]quinazolin-9-yl]-3-methyl-piperidin-3-ol]	≤ 10	≤ 10	
CCc1c(F)ccc2cc(O)cc(-c3cc4nc(OC[C@@]56CCCN5C[C@H](F)C6)nc(N5CCC(O)C5)c4c4cn(C)nc34)c12 (mixture of isomers) [Example 117, 1-[4-(8-ethyl-7-fluoro-3-hydroxy-1-naphthyl)-2-methyl-7-[[rac-(2R,8S)-2-fluoro-1,2,3,5,6,7-hexahydropyrrolizin-8-yl]methoxy]pyrazolo[4,3-f]quinazolin-9-yl]pyrrolidin-3-ol]	≤ 10	≤ 10	
CCNC(=O)c1cc2n(n1)CCCN(c1nc(OC[C@@]34CCCN3C[C@H](F)C4)nc3c(C)c(-c4cc(O)cc5ccc(F)c(CC)c45)c4nn(C)cc4c13)C2 [Example 181, N-ethyl-5-[4-(8-ethyl-7-fluoro-3-hydroxy-1-naphthyl)-7-[[(2R,8S)-2-fluoro-1,2,3,5,6,7-hexahydropyrrolizin-8-yl]methoxy]-2,5-dimethyl-pyrazolo[4,3-f]quinazolin-9-yl]-4,6,7,8-tetrahydropyrazolo[1,5-a][1,4]diazepine-2-carboxamide]	≤ 10	≤ 10	
CCc1c(F)ccc2cc(O)cc(-c3c(F)c4nc(OCC56COC(COC)(C5)C6)nc(N5CCCn6nc(C(=O)N(C)C)cc6C5)c4c4cn(C)nc34)c12 [Example 208, 5-[4-(8-ethyl-7-fluoro-3-hydroxy-1-naphthyl)-5-fluoro-7-[[1-(methoxymethyl)-2-oxabicyclo[2.1.1]hexan-4-yl]methoxy]-2-methyl-pyrazolo[4,3-f]quinazolin-9-yl]-N,N-dimethyl-4,6,7,8-tetrahydropyrazolo[1,5-a][1,4]diazepine-2-carboxamide]	≤ 10	10 to 100	
CCc1c(F)ccc2cc(O)cc(-c3c(F)c4nc(OC[C@@]56CCCN5C[C@H](F)C6)nc(N5CCCOCC5)c4c4cn(C)nc34)c12 [Example 88, 5-ethyl-6-fluoro-4-[5-fluoro-2-methyl-9-(1,4-oxazepan-4-yl)-7-[[(2R,8S)-2-fluoro-1,2,3,5,6,7-hexahydropyrrolizin-8-yl]methoxy]pyrazolo[4,3-f]quinazolin-4-yl]naphthalen-2-ol]	≤ 10	≤ 10	
CCc1c(F)ccc2cc(O)cc(-c3c(F)c4nc(OCC56COC(COC)(C5)C6)nc(N5CCOCC(C)(O)C5)c4c4cn(C)nc34)c12 (stereo not shown) [Example 165, 4-[4-(8-ethyl-7-fluoro-3-hydroxy-1-naphthyl)-5-fluoro-7-[[1-(methoxymethyl)-2-oxabicyclo[2.1.1]hexan-4-yl]methoxy]-2-methyl-pyrazolo[4,3-f]quinazolin-9-yl]-6-methyl-1,4-oxazepan-6-ol]	≤ 10	10 to 100	
CCNC(=O)c1cc2n(n1)CCCN(c1nc(OC[C@@]34CCCN3C[C@H](F)C4)nc3c(F)c(-c4cc(O)cc5ccc(F)c(CC)c45)c4nn(C)cc4c13)C2 [Example 196, N-ethyl-5-[4-(8-ethyl-7-fluoro-3-hydroxy-1-naphthyl)-5-fluoro-7-[[(2R,8S)-2-fluoro-1,2,3,5,6,7-hexahydropyrrolizin-8-yl]methoxy]-2-methyl-pyrazolo[4,3-f]quinazolin-9-yl]-4,6,7,8-tetrahydropyrazolo[1,5-a][1,4]diazepine-2-carboxamide]	≤ 10	≤ 10	
CCc1c(F)ccc2cc(O)cc(-c3c(F)c4nc(OC[C@@]56CCCN5C[C@H](F)C6)nc(N5CCC(C#N)CC5)c4c4cn(C)nc34)c12 [Example 111, 1-[4-(8-ethyl-7-fluoro-3-hydroxy-1-naphthyl)-5-fluoro-2-methyl-7-[[(2R,8S)-2-fluoro-1,2,3,5,6,7-hexahydropyrrolizin-8-yl]methoxy]pyrazolo[4,3-f]quinazolin-9-yl]piperidine-4-carbonitrile]	10 to 100	≤ 10	
CCc1c(F)ccc2cc(O)cc(-c3cc4nc(OC[C@@]56CCCN5C[C@H](F)C6)nc(N5CC6CCC(C5)N6)c4c4cn(C)nc34)c12 [Example 15]	≤ 10	10 to 100	
CCc1c(F)ccc2cc(O)cc(-c3c(C)c4nc(OCC5(CN(C)C)CC5)nc(N5CCC[C@@](C)(O)C5)c4c4cn(C)nc34)c12 [Example 204, (3R)-1-[7-[[1-[(dimethylamino)methyl]cyclopropyl]methoxy]-4-(8-ethyl-7-fluoro-3-hydroxy-1-naphthyl)-2,5-dimethyl-pyrazolo[4,3-f]quinazolin-9-yl]-3-methyl-piperidin-3-ol]	≤ 10	≤ 10	
CCc1c(F)ccc2cc(O)cc(-c3c(F)c4nc(OCC5(CN6CCC(CC#N)CC6)CC5)nc(N5CCOCC(C)(O)C5)c4c4cn(C)nc34)c12 (stereo not shown) [Example 225, 2-[1-[[1-[[4-(8-ethyl-7-fluoro-3-hydroxy-1-naphthyl)-5-fluoro-9-(6-hydroxy-6-methyl-1,4-oxazepan-4-yl)-2-methyl-pyrazolo[4,3-f]quinazolin-7-yl]oxymethyl]cyclopropyl]methyl]-4-piperidyl]acetonitrile]	≤ 10	≤ 10	
